Data as given in patent US6583154B1, “Compounds and methods which modulate feeding behavior and related diseases” (Amgen Inc., priority 1998, dated 2003).
Where a name gives a salt, the structure may show the parent alone.

Assays:
Long-Evans male rats [1] = assay: Icv administration of compounds in food-deprived Long-Evans male rats, food intake; type: in vivo; settings: Long-Evans male rats food deprived for 16 hours; I.C.V. injection in DMSO, 20 μl; 4 hours post-injection; vehicle 8.69 ± 0.53; * significantly different from vehicle, p < 0.05
Experimental: Protocol for Icv Administration of Compounds in Food-Deprived Long-Evans Male Rats
Adult male Long-Evans rats (approx. 275 g) were obtained from Charles River Laboratories (Wilmington, MA) and given one week to acclimate to the animal facility. Animals were housed individually and given ad-lib access to food and water. After acclimation, animals were anesthetized (75 mg/kg Sodium Nembutal) and implanted with 23 g cannulas (Plastics One, Roanoke, VA) into the right lateral cerebral ventricle. All animals were given at least 1 week post-operative recover before any experiment.
Animals were food deprived for 16 hours prior to injections. Intracerebroventricular injection of compounds was done in awake, unrestrained animals in a DMSO vehicle in a volume of 20 μl. Immediately following the injection, the animals were returned to their home cage and were provided with a pre-weighed portion of regular rat chow pellets. Total food consumed was measured at 2 and 4 hours post-injection.

OB/OB female mice = assay: Icv administration of compounds in ad-lib fed OB/OB female mice, food intake; type: in vivo; settings: I.C.V. injection in 100% DMSO, 5 μl, 4 hours post-injection, vehicle 0.61 ± 0.10, * significantly different from vehicle, p < 0.05
Description: Protocol For Icv Administration of Compounds In Ad-Lib Fed OB/OB Female Mice.
Eight week old (approx. 50 g) OB/OB female mice were obtained from Jackson Laboratories (Bar Harbor, ME) and given one week to acclimate to the animal facility before the experiment. Animals were housed 10 per cage and were provided with food and water ad-lib. Immediately prior to injection, animals were removed from group housing and lightly anesthetized using 4% isofluorane vapor. Freehand intracerebroventricular (“icv”) injection of compounds was done in a 100% DMSO vehicle in a volume of 5 μl. Immediately following the injection, animals were placed in individual cages and were provided with a pre-weighed portion of regular chow pellets. Total amount of food consumed was measured at 1, 2, 4 and 24 hours post-injection.

Long-Evans male rats [2] = assay: IP administration of compounds in fasted Long-Evans male rats, 2 hr food intake; type: in vivo; settings: Rattus norvegicus; male Long Evans rats fasted 18-20 hr; 30 mg/kg (ip) in 2% tween; food given after 30 min, weighed 2 hr later; vs vehicle; read-out: inhibition of feeding (2 hr food intake)
Experimental: Protocol for IP Administration of Compounds in Fasted Long-Evans Male Rats
Male Long Evans rats (85-100 g)were obtained from Harlan (Indianapolis, Ind.) and were given at least a one week acclimation period to Ambients animal care facilities. Animals were individually housed and were provided ad libitum food and water. For testing, rats were fasted for 18-20 hr (overnight) prior to the start of the experiment. On the test day, test compounds or vehicle was administered via the intraperitoneal (i.p.) route of administration. Test compounds were suspended in a 2% tween solution; the 2% tween solution was used as the vehicle treatment (control group). Group sizes for each treatment were 6-8 animals. After 30 min, premeasured food was placed into the cages. Two hours later, the food was weighed again. The difference between 2 hr weight and the premeasured weight was taken as 2 hr food intake.

Male BALB-C mice = assay: IP administration of compounds in fasted male BALB-C mice, 2 hr food intake; type: in vivo; settings: Mus musculus; male BALB-C mice fasted 18-20 hr; 30 mg/kg (ip) in 2% tween; food given after 30 min, weighed 2 hr later; vs vehicle; read-out: inhibition of feeding (2 hr food intake)
Description: Protocol For IP Administration Of Compounds In Male BALB-C Mice.
Male BALB-C mice (20-25 g)were obtained from Charles Rivers (Wilmington, Mass.) and were given at least a one week acclimation period to Amgen's animal care facilities. Animals were housed 10/cage and were provided ad libitum food and water. For testing, mice were fasted for 18-20 hr (overnight) prior to the start of the experiment. On the day of the experiment, mice were removed from group housing and placed into individual cages (without food). Test compounds or vehicle was then administered via the intraperitoneal (i.p.) route of administration. Test compounds were suspended in a 2% tween solution; the 2% tween solution was used as the vehicle treatment (control group). Group sizes for each treatment were 6-8 animals. After 30 min, premeasured food was placed into the cages. Two hours later, the food was weighed again. The difference between 2 hr weight and the premeasured weight was taken as 2 hr food intake.

melting point	SMILES	4 hr food intake (g ± S.E.M.) (Long-Evans male rats [1])	4 hr food intake (g ± S.E.M.) (OB/OB female mice)	inhibition in vivo at 30 mg/kg (Long-Evans male rats [2]) [%]	inhibition in vivo at 30 mg/kg (Male BALB-C mice) [%]
184 to 185 °C	CCN(CC)c1nc(C)nc2cc(-c3ccccc3)[nH]c12 [Example 1f, Diethyl(2-methyl-6-phenylpyrrolo[2,3-e]pyrimidin-4-yl)amine]	5.13 ± 1.40* g	–	–	–
–	Cc1nc(N2CCCCC2)c2[nH]c(-c3ccccc3)cc2n1 [Example 35, 2-methyl-6-phenyl-4-(piperidinyl)pyrrolo[3,2-d]pyrimidine]	–	0.29 ± 0.11* g	≥ 10	≥ 10
285.4 to 286 °C (dec.)	Cl.c1ccc(-c2cc3nc(C4CC4)nc(N4CCCCC4)c3[nH]2)cc1 [Example 69c, 2-Cyclopropyl-6-phenyl-4-piperidylpyrrolo[3,2-d]pyrimidine Hydrochloride]	–	–	≥ 10	≥ 10
> 280 °C	Cc1nc(N2CCCCC2)c2[nH]c(-c3cccs3)cc2n1.Cl [Example 76c, 2-(2-Methyl-4-piperidylpyrrolo[4,5-d]pyrimidin-6-yl)thiophene Hydrochloride]	–	–	≥ 10	≥ 10
> 288 °C	CCc1nc(N2CCCCC2)c2oc(-c3ccc(Cl)cc3)cc2n1 [Example 96, 6-(4-Chlorophenyl)-2-ethyl-4-piperidinylfurano[3,2-d]pyrimidine]	–	–	≥ 10	≥ 10
–	Cc1nc(N2CCCCC2)c2[nH]c(C(C)(C)C)cc2n1 [Example 97, 6-(tert-Butyl)-2-methyl-4-piperidylpyrrolo[3,2-d]pyrimidine Hydrochloride Hydrate]	–	–	≥ 10	≥ 10
–	Cc1nc(N2CCCCC2)c2[nH]c(-c3ccn(S(=O)(=O)c4ccccc4)c3)cc2n1 [Example 101, 3-(2-Methyl-4-piperidylpyrrolo[4,5-d]pyrimidin-6-yl)-1-(phenylsulfonyl)pyrrole Hydrochloride Hydrate]	–	–	≥ 10	≥ 10
–	Cc1nc(N2CCCCC2)c2[nH]c(-c3cc(C)oc3C)cc2n1 [Example 108, 2,5-Dimethyl-3-(2-methyl-4-piperidylpyrrolo[4,5-d]pyrimidin-6-yl)furan Hydrochloride Monohydrate]	–	–	≥ 10	≥ 10
–	Cc1nc(N2CCCCC2)c2[nH]c(-c3ccc(C(F)(F)F)cc3)cc2n1 [Example 111, 2-Methyl-4-piperidyl-6-[4-(trifluoromethyl)phenyl]pyrrolo[3,2-d]pyrimidine Hydrochloride Hydrate]	–	–	≥ 10	≥ 10
–	Cc1nc(N2CCCCC2)c2[nH]c(-c3cc(F)c(F)c(F)c3)cc2n1 [Example 116, 2-Methyl-4-piperidyl-6-(3,4,5-trifluorophenyl)pyrrolo[3,2-d]pyrimidine Hydrochloride Hydrate]	–	–	≥ 10	≥ 10
–	Cc1nc(N2CCCCC2)c2[nH]c(-c3ccc(Cl)c(Cl)c3)cc2n1 [Example 118, 6-(3,4-Dichlorophenyl)-2-methyl-4-piperidylpyrrolo[3,2-d]pyrimidine Hydrochloride Monohydrate]	–	–	≥ 10	≥ 10
–	COc1ccc(-c2cc3nc(C)nc(N4CCCCC4)c3[nH]2)cc1F [Example 119, 2-Fluoro-1-methoxy-4-[2-methyl-4-piperidylpyrrolo[4,5-d]pyrimidin-6-yl]benzene Hydrochloride Hydrate]	–	–	≥ 10	≥ 10
–	Cc1nc(N2CCCCC2)c2[nH]c(-c3ccc(F)c(F)c3)cc2n1 [Example 121, 6-(3,4-Difluorophenyl)-2-methyl-4-piperidylpyrrolo[3,2-d]pyrimidine Hydrochloride Hydrate]	–	–	≥ 10	≥ 10
–	Cc1nc(N2CCCCC2)c2[nH]c(-c3cc(C(F)(F)F)cc(C(F)(F)F)c3)cc2n1.Cl [Example 122, 6-((3,5-bis(Trifluoromethyl)phenyl)-2-methyl-4-piperidylpyrrolo[3,2-d]pyrimidine Hydrochloride]	–	–	≥ 10	≥ 10
–	Cc1nc(N2CCCCC2)c2[nH]c(-c3ccc(SC(F)(F)F)cc3)cc2n1 [Example 123, Trifluoro[4-(2-methyl-4-piperidylpyrrolo[4,5-d]pyrimidin-6-yl)phenylthio]methane Hydrochloride Monohydrate]	–	–	≥ 10	≥ 10
–	Cc1nc(N2CCCCC2)c2[nH]c(-c3ccc(C)c(C)c3)cc2n1 [Example 124, 6-(3,4-Dimethylphenyl)-2-methyl-4-piperidylpyrrolo[3,2-d]pyrimidine Hydrochloride Hydrate]	–	–	≥ 10	≥ 10
–	Cc1nc(NC[C@H]2CC[C@H](CNS(=O)(=O)c3cccc4ccccc34)CC2)c2[nH]c(-c3ccccc3)cc2n1 [Example 194, trans-[(4-{[(2-Methyl-6-phenylpyrrolo[2,3-e]pyrimidin-4-yl)amino]methyl}cyclohexyl)methyl](naphthylsulfonyl)amine Hydrochloride Hydrate]	–	–	≥ 10	≥ 10
–	Cc1nc(N2CCCCC2)c2[nH]c(-c3ccc(OC(F)(F)F)cc3)cc2n1 [Example 195d, Trifluoro[4-(2-methyl-4-piperidylpyrrolo[4,5-d]pyrimidin-6-yl)phenoxylmethane Hydrochloride Monohydrate]	–	–	≥ 10	≥ 10
–	CCCc1nc(N2CCCCC2)c2[nH]c(-c3ccccc3)cc2n1 [Example 196c, 6-Phenyl-4-piperidyl-2-propylpyrrolo[3,2-d]pyrimidine Hydrochloride Monohydrate]	–	–	≥ 10	≥ 10
–	Cc1nc(N2CC=CC2)c2[nH]c(-c3cccc(C(F)(F)F)c3)cc2n1 [Example 197d, 2-Methyl-4-(3-pyrrolinyl)-6-[3-(trifluoromethyl)phenyl]pyrrolo[3,2-d]pyrimidine Hydrochloride Monohydrate]	–	–	≥ 10	≥ 10
–	Cc1nc(N2CC=CC2)c2[nH]c(-c3cccc(Cl)c3)cc2n1 [Example 198, 6-(3-Chlorophenyl)-2-methyl-4-(3-pyrrolinyl)pyrrolo[3,2-d]pyrimidine Hydrochloride Hydrate]	–	–	≥ 10	≥ 10
–	Cc1nc(N2CCCCC2)c2sc(-c3ccc(F)cc3)cc2n1 [Example 217, 6-(4-Fluorophenyl)-2-methyl-4-piperidylthiopheno[3,2-d]pyrimidine Hydrochloride Hydrate]	–	–	≥ 10	≥ 10
